# Reference: patent publication US10760052B2, “Method of inhibiting tau phosphorylation” (priority 2012, dated 2020)
# Several values for one entry are separate records, joined by “and”; a condition that tells them apart may be missing. Identical values can stand only once. Like-named read-outs stand apart in the source and are kept apart here.
# How the values were obtained:
# [1] = target: VAKGL pentapeptide of filamin A (FLNA) of SEQ ID NO: 1 (Homo sapiens, UniProt P21333); experiment: FITC-NLX-based FLNA screening assay (inhibition of FITC-naloxone binding to Bn-VAKGL on streptavidin plates); settings: for Percent binding inhibition, preliminary study: 100 nM frozen-stored FITC-NLX, average of two runs
# mu opiate receptor (MOR) = target: T1, mu opiate receptor (MOR) (Rattus norvegicus, UniProt P33535); type: biochemical; settings: for [35S]GTPγS binding, FLNA-Binding Compound as Agonist at 0.1 μM: 0.1 μM compound; for [35S]GTPγS binding, FLNA-Binding Compound as Agonist at 0.1 μM / [35S]GTPγS binding, FLNA-Binding Compound as Agonist at 1 μM: striatal membranes; for [35S]GTPγS binding, FLNA-Binding Compound as Agonist at 0.1 μM / [35S]GTPγS binding, FLNA-Binding Compound as Agonist at 1 μM + BFNA / [35S]GTPγS binding, FLNA-Binding Compound as Agonist at 1 μM: Series C-2; for [35S]GTPγS binding, FLNA-Binding Compound as Agonist at 1 μM + BFNA: 1 μM compound + 1 μM β-FNA (selective MOR antagonist); for [35S]GTPγS binding, FLNA-Binding Compound as Agonist at 1 μM: 1 μM compound
# T1 construct: from tissue; host or cells: striatum (membrane preparation)
# [2] = [35S]GTPγS binding to Gαo in striatal membranes, compound 0.1 μM
# [3] = [35S]GTPγS binding to Gαo in striatal membranes, compound 1 μM
# [4] = [35S]GTPγS binding to Gαo in striatal membranes, compound 1 μM plus 1 μM β-funaltrexamine (MOR antagonist)
# T1 sequence (P33535 whole entry): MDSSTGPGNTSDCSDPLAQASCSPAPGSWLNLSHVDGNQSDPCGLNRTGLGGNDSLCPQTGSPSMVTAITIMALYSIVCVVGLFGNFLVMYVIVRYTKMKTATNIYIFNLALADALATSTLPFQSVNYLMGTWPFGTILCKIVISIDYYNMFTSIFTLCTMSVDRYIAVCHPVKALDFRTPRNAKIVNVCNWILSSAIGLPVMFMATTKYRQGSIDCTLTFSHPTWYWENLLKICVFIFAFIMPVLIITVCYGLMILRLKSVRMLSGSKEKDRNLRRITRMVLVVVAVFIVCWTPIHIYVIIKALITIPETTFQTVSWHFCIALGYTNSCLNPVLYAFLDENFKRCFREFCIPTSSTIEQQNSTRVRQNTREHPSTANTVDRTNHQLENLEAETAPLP
SMILES,% DAMGO (0.1 μM) (mu opiate receptor (MOR)) [%],% DAMGO (1 μM) (mu opiate receptor (MOR)) [%],% DAMGO + BFNA (mu opiate receptor (MOR)) [%],Concentration of FLNA-Binding Compound as Agonist 0.1 μM (mu opiate receptor (MOR); [2]) [%],Concentration of FLNA-Binding Compound as Agonist 1 μM (mu opiate receptor (MOR); [3]) [%],Concentration of FLNA-Binding Compound as Agonist 1 μM + BFNA (mu opiate receptor (MOR); [4]) [%],further results
"C=CCN1CC[C@]23c4c5ccc(O)c4O[C@H]2C(=O)CC[C@]3(O)[C@H]1C5 [(+) NLX, (+)naloxone]",–,–,–,–,–,–,"Percent binding inhibition, preliminary study ([1]; 0.1 nM compound): 22.7%; Percent binding inhibition, preliminary study ([1]; 1 nM compound): 22.8%; Percent binding inhibition, preliminary study ([1]; 10 nM compound): 23.1%; Percent binding inhibition, preliminary study ([1]; 100 nM compound): 22.8%; Percent binding inhibition, preliminary study ([1]; 1 μM compound): 39.8%"
"C=CCN1CC[C@]23c4c5ccc(O)c4O[C@H]2C(=O)CC[C@@]3(O)[C@H]1C5 [Naloxone, naloxone]",–,–,–,–,–,–,Percent Binding Inhibition (FITC-NLX binding) [1]: 39.87% and 46.29% and 50.91%
CC1CN(CC(O)COc2ccccc2C(C)C)CC(C)O1 (stereo not drawn) [Compound A0029],98.4,81.2,84.8,173.8,206.5,22.3,–
CC(=O)c1ccc(S(=O)(=O)N2CCC3(CC2)OCCN3S(C)(=O)=O)cc1 [Compound C0056],68.0,83.0,196.1,–,–,–,"[35S]GTPγS binding, FLNA-Binding Compound as Agonist at 0.1 μM (mu opiate receptor (MOR)): 98.6%; [35S]GTPγS binding, FLNA-Binding Compound as Agonist at 1 μM + BFNA (mu opiate receptor (MOR)): 86.3%; [35S]GTPγS binding, FLNA-Binding Compound as Agonist at 1 μM (mu opiate receptor (MOR)): 193.4%"
OC(COc1cccc(F)c1)CN1CCc2ccccc2C1 (stereo not drawn) [Compound A0055],53.2,78.4,102.4,89.8,195.2,33.5,–
CC1CN(CC(O)COc2cccc(F)c2)CC(C)O1 (stereo not drawn) [Compound A0049],118.4,134.2,144.9,232.3,370.3,107.1,–
COc1ccc(NC(=O)N2CCC3(CC2)OCCN3S(=O)(=O)c2ccc(OC)cc2)cc1 [Compound C0041],110.1,111.7,575.3,186.1,244.4,95.5,–
CC1CCC(C(C)C)C(OCC(O)CN2CCC(=O)CC2)C1 (stereo not drawn) [Compound A0060],63.9,68.6,35.8,99.7,158.2,14.3,–
CC(=O)c1ccc(S(=O)(=O)N2CCC3(CC2)NC(=O)CN3S(=O)(=O)c2ccc(C(C)=O)cc2)cc1 [Compound C0064],124.2,159.1,110.4,213.8,349.6,38.1,–
CC1CCC(C(C)C)C(OCC(O)CN2CCC(=O)C(C)C2)C1 (stereo not drawn) [Compound A0056],74.1,56.2,43.6,–,–,–,Concentration of FLNA-Binding Compound as Agonist 0.1 μM (mu opiate receptor (MOR)): 115.6%; Concentration of FLNA-Binding Compound as Agonist 1 μM (mu opiate receptor (MOR)): 129.6%; Concentration of FLNA-Binding Compound as Agonist 1 μM + BFNA (mu opiate receptor (MOR)): 17.4%
NS(=O)(=O)c1ccc(S(=O)(=O)N2CCC3(CC2)OCCN3S(=O)(=O)c2ccc(S(N)(=O)=O)cc2)cc1 [Compound C0034],61.3,76.7,482.5,–,–,–,Concentration of FLNA-Binding Compound as Agonist 0.1 μM (mu opiate receptor (MOR)): 103.6%; Concentration of FLNA-Binding Compound as Agonist 1 μM (mu opiate receptor (MOR)): 167.9%; Concentration of FLNA-Binding Compound as Agonist 1 μM + BFNA (mu opiate receptor (MOR)): 80.1%
O=S(=O)(c1ccc(Br)cc1F)N1CCC2(CC1)OCCN2S(=O)(=O)c1ccc(Br)cc1F [Compound C0078],82.4,106.4,359.4,138.1,236.6,170.7,–
CN1CCC2(CC1)OCCN2S(=O)(=O)c1ccc(S(C)(=O)=O)cc1 [Compound C0106M],102.5,108.3,246.7,–,–,–,"[35S]GTPγS binding, FLNA-Binding Compound as Agonist at 0.1 μM (mu opiate receptor (MOR)): 171.8%; [35S]GTPγS binding, FLNA-Binding Compound as Agonist at 1 μM + BFNA (mu opiate receptor (MOR)): 117.2%; [35S]GTPγS binding, FLNA-Binding Compound as Agonist at 1 μM (mu opiate receptor (MOR)): 240.7%"
COc1ccc(S(=O)(=O)N2CCOC23CCN(C)CC3)cc1 [Compound C0088M],160.5,161.7,513.3,–,–,–,"[35S]GTPγS binding, FLNA-Binding Compound as Agonist at 0.1 μM (mu opiate receptor (MOR)): 276.3%; [35S]GTPγS binding, FLNA-Binding Compound as Agonist at 1 μM + BFNA (mu opiate receptor (MOR)): 177.1%; [35S]GTPγS binding, FLNA-Binding Compound as Agonist at 1 μM (mu opiate receptor (MOR)): 355.3%"
Cc1cccc(S(=O)(=O)N2CCC3(CC2)OCCN3S(=O)(=O)c2cccc(C)c2)c1 [Compound C0014],82.0,59.2,116.1,144.9,153.5,76.3,–
CC1CCC(C(C)C)C(OCC(O)CN(C(C)C)C(C)C)C1 (stereo not drawn) [Compound A0037],90.7,85.6,141.5,177.9,236.2,104.6,–
OC(COc1ccc(Br)c(F)c1)CN1CCCCC1 (stereo not drawn) [Compound A0058],45.3,106.0,150.1,70.7,244.3,59.9,–
